Bridge positions count the residues as written; N and C are the ends. Square brackets hold non-standard residues; d marks the D form. Peptide text beside a SMILES is read from it. R5 = C=CCCC[C@@](C)(N)C(=O)O; S5 = C=CCCC[C@](C)(N)C(=O)O
Legend:
rHRSV-Luc = assay: RSV infection of mice, intranasal treatment, in vivo luminescence; conditions: BALB/c, n = 4
Protocol: In order to track the infection, we used the recombinant virus rHRSV-Luc, which was previously shown to allow in vivo imaging studies of RSV replication and spreading and constitutes a powerful and convenient tool for the evaluation of drug efficiency against RSV in the mouse model ([24]). […] Mice were anesthetized at day 3 p.i. and observed alive using the IVIS imaging system 5 min after i.n. injection of D-luciferin. […] At day 3 p.i., a second dose of the peptide was administered to the mice, and the bioluminescence was measured at day 5 p.i. […]
Female BALB/c mice were purchased from the Centre d'Elevage R. Janvier (Le Genest Saint-Isle, France) and were used at 8 weeks of age. […] Luminescence measurement was then performed at day 5 p.i.
Mice were anesthetized, and luminescence was measured 5 min following i.n. injection of 50 μl of PBS containing 0.75 mg kg^−1 of body weight D-luciferin (Sigma). Photon emission of mock-infected and rHRSV-Luc-infected mice was measured using the IVIS 200 imaging system (Xenogen Corp.). […] Digital false-color photon emission images of mice were generated, and photons were counted within a constant region of interest corresponding to the surface of the chest encompassing the whole-airway area. Photon emission was measured as radiance in photons per second per square centimeter per steradian (p s^−1 cm^−2 sr^−1).

[1] = Histological analysis of lungs; type: in vivo, BALB/c mice
Protocol: In order to track the infection, we used the recombinant virus rHRSV-Luc, which was previously shown to allow in vivo imaging studies of RSV replication and spreading and constitutes a powerful and convenient tool for the evaluation of drug efficiency against RSV in the mouse model ([24]). […] Mice were anesthetized at day 3 p.i. and observed alive using the IVIS imaging system 5 min after i.n. injection of D-luciferin. […] At day 3 p.i., a second dose of the peptide was administered to the mice, and the bioluminescence was measured at day 5 p.i. […] At day 7 p.i., a time corresponding to the end of the infection in mice, the animals were sacrificed and the lungs were collected in order to perform a histological analysis. […]
Mice were sacrificed at day 7 p.i., the chest cavity was opened, and the lungs were perfused intratracheally with 4% paraformaldehyde (PFA) in PBS. […] The lungs were embedded in paraffin, and 5-μm sections were cut, stained with hematoxylin-eosin-saffron (HES), and evaluated microscopically. Qualitative histological changes were described and when applicable were scored semiquantitatively using a three-point scale from 0 to 2 (0, none; 1, mild; 2, marked), focusing on histological characterization of lesions (interstitial pneumonia, respiratory epithelial cell apoptosis, and hyperplasia) and inflammation.

HEp-2 cells = assay: Cytotoxicity, CellTiter-Glo Luminescent cell viability assay; type: cell-based; conditions: serial dilutions of peptide, 24 h, duplicates
Protocol: Viral replication was quantified by measuring the mCherry fluorescence at 48 h p.i. and normalized based on the fluorescence of infected and untreated cells. (B) Cytotoxicity assay. HEp-2 cells were incubated in the presence of serial dilutions of peptides, and cell survival was quantified using the CellTiter-Glo Luminescent cell viability assay 24 h after the addition of the peptides. The signal was normalized based on the luminescence obtained for untreated cells. Error bars are standard deviations from duplicates.
A549 (ATCC CCL-185) cells were maintained in Dulbecco's modified Eagle medium (DMEM) supplemented with 10% fetal calf serum (FCS). HEp-2 (ATCC CCL-23) cells were maintained in Eagle's miminum essential medium (EMEM) supplemented with 10% FCS, 2 mM L-glutamine, and penicillin-streptomycin solution. The cells were grown in an incubator at 37°C in 5% CO2. Cytotoxicity assays were done with the CellTiter-Glo Luminescent cell viability assay (Promega).

CC[C@H](C)[C@@H]1NC(=O)[C@H](Cc2ccccc2)NC(=O)[C@@](C)(NC(=O)[C@H](CC(C)C)NC(=O)[C@H](CO)NC(=O)[C@]2(C)CCCC=CCCC[C@@](C)(NC(=O)[C@H](CCC(=O)O)NC(C)=O)C(=O)N[C@@H]([C@@H](C)CC)C(=O)N[C@@H](CC(N)=O)C(=O)N2)CCCC=CCCC[C@@](C)(C(=O)N[C@@H](CO)C(=O)N[C@@H](CC(=O)O)C(=O)N[C@@H](CCC(=O)O)C(=O)N[C@@H](CC(C)C)C(=O)N[C@@H](CC(C)C)C(=O)N[C@@H](Cc2c[nH]cn2)C(=O)N[C@@H](CC(N)=O)C(=O)N[C@H](C(N)=O)C(C)C)NC(=O)[C@H](CCCNC(=N)N)NC1=O [Peptide 4ca] (Ac-E[R5]IN[S5]SL[S5]FIR[S5]SDELLHNV-NH2; staple 2-5, 8-12)
decrease of viral infection versus untreated mice (bioluminescence) (rHRSV-Luc; i.n. 50 μl at 50 μM in PBS at day 0 (10 min before rHRSV-Luc 5 × 10^4 PFU) and day 3, day 5 p.i.): 3 fold | bioluminescence in snout and lungs versus control mice (rHRSV-Luc; i.n. 50 μl at 50 μM in PBS, rHRSV-Luc 5 × 10^4 PFU, day 3 p.i.): clearly reduced | histological changes in lung parenchyma (toxicity) ([1]; 4ca-inoculated versus mock-inoculated noninfected mice, i.n. 50 μl at 50 μM, day 7, HES staining): no histological changes | interstitial pneumonia after RSV infection ([1]; RSV-infected mice treated i.n. with 4ca, day 7 p.i., HES staining): no interstitial pneumonia was observed | cellular toxicity (HEp-2 cells): no cellular toxicity was detected
